We go through six compounds from paper PMC12830947, “Structure and mechanism of the broad spectrum CRISPR-associated ring nuclease Crn4” (Nature Communications, 2025).

Broadly, the stoichiometry N is the number of molecules, sites or subunits per partner or assembly.

The target of experiment [1] is T1, Crn4b (Hyphomicrobiales bacterium, UniProt A0ACM8DFW0).
T1 construct: synthetic codon-optimised gene, pEhisV5TEV, E. coli C43(DE3); His tag removed by TEV; homodimer
T1 sequence (A0ACM8DFW0 5-128): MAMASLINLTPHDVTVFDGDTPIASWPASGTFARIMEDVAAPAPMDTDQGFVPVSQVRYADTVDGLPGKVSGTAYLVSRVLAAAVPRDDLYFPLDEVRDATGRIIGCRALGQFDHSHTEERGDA
Briefly: HPLC ring nuclease assay. It counts as biochemical. Particulars: pH 7.5, 250 mM NaCl, 1 mM EDTA, 37 C.

In experiment [2] the target is T2, Crn4a (Actinomyces procaprae, UniProt Z9F5G1FLT2).
T2 construct: synthetic codon-optimised gene, pEhisV5TEV, E. coli C43(DE3); His tag removed by TEV; homodimer, one cA6 per dimer at the dimer interface
T2 sequence (Z9F5G1FLT2 1-149): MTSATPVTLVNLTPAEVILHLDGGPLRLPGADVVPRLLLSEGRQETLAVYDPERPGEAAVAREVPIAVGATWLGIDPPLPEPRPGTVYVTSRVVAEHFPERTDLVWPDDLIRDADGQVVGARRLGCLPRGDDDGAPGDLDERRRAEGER
Briefly: X-ray co-crystal structure, […] A. It counts as binding. Particulars: active site at dimer interface, one cA6 per dimer; two Mg2+; pH 5.5; inactive variant.

For experiment [3], the target named is Actinomyces procaprae Crn4a (CRISPR ring nuclease 4, subfamily a), wild type (Actinomyces procaprae). Briefly: crystal structure; apo Crn4a at 13 mg/mL, sitting drop at 293 K, 0.1 M sodium acetate pH 4.5, 22% v/v PEG Smear Broad; 2.34 Å.
Experiment [4] deals with Actinomyces procaprae Crn4a H15A variant (Actinomyces procaprae). Briefly: crystal structure; Crn4a H15A at 11 mg/mL with 1.2 molar excess of cA6, sitting drop at 293 K, 23.8% PEG 3350, 0.2 M magnesium chloride, 0.1 M Bis-Tris pH 5.5; 1.44 Å.
Experiment [5] deals with Hyphomicrobiales bacterium Crn4b (CRISPR ring nuclease 4, subfamily b), wild type (Hyphomicrobiales bacterium). Briefly: crystal structure; apo Crn4b at 15 mg/mL, sitting drop at 293 K, 20% PEG 6000, 10% ethylene glycol, 0.1 M calcium chloride; 1.09 Å.

With `Nc1ncnc2c1ncn2[C@@H]1O[C@@H]2COP(=O)(O)O[C@H]3[C@@H](O)[C@H](n4cnc5c(N)ncnc54)O[C@@H]3COP(=O)(O)O[C@H]3[C@@H](O)[C@H](n4cnc5c(N)ncnc54)O[C@@H]3COP(=O)(O)O[C@H]2[C@H]1O` [cA3], in experiment [1] (intermediate A3>P), the “HPLC ring nuclease assay” value is “Crn4b degraded cA4 and cA3 but was inactive against cA6”.

On to `Nc1ncnc2c1ncn2[C@@H]1O[C@@H]2COP(=O)(O)O[C@H]3[C@@H](O)[C@H](n4cnc5c(N)ncnc54)O[C@@H]3COP(=O)(O)O[C@H]3[C@@H](O)[C@H](n4cnc5c(N)ncnc54)O[C@@H]3COP(=O)(O)O[C@H]3[C@@H](O)[C@H](n4cnc5c(N)ncnc54)O[C@@H]3COP(=O)(O)O[C@H]2[C@H]1O` [cA4, cyclic tetra-adenylate], for which the “HPLC ring nuclease assay” value in experiment [1] (sequential cleavage via A4>P) was “Crn4b degraded cA4 and cA3 but was inactive against cA6”.

On to `Nc1ncnc2c1ncn2[C@@H]1O[C@@H]2COP(=O)(O)O[C@H]3[C@@H](O)[C@H](n4cnc5c(N)ncnc54)O[C@@H]3COP(=O)(O)O[C@H]3[C@@H](O)[C@H](n4cnc5c(N)ncnc54)O[C@@H]3COP(=O)(O)O[C@H]3[C@@H](O)[C@H](n4cnc5c(N)ncnc54)O[C@@H]3COP(=O)(O)O[C@H]3[C@@H](O)[C@H](n4cnc5c(N)ncnc54)O[C@@H]3COP(=O)(O)O[C@H]3[C@@H](O)[C@H](n4cnc5c(N)ncnc54)O[C@@H]3COP(=O)(O)O[C@H]2[C@H]1O` [cA6, cyclic hexa-adenylate], for which the “X-ray co-crystal structure, 1.44 A” value in experiment [2] was “The structure of Crn4a in complex with cA6 shows the ligand binds at the dimer interface”.

Take “Actinomyces procaprae Crn4a (CRISPR ring nuclease 4, subfamily a), wild type (enzyme)”: in experiment [3], the stoichiometry N amounted to 2.

Consider “Actinomyces procaprae Crn4a H15A variant (enzyme)”, for which, in experiment [4], the stoichiometry N came out at 2.

Regarding “Hyphomicrobiales bacterium Crn4b (CRISPR ring nuclease 4, subfamily b), wild type (enzyme)”, the stoichiometry N in experiment [5] worked out at 2.
